Calls of active or inactive are those of the source. The rule behind the calls is not given here.
System: rodent carcinogenicity bioassays, tumor incidence
Assay: CCRIS carcinogenicity studies
Procedure, shortened: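 Archive of carcinogenicity, mutagenicity, tumor promotion and tumor inhibition results drawn from journals, NCI reports and other sources, expert-reviewed; covers 1985-2011 and is no longer updated.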

Structure (SMILES): CCCCCC[C@@H](O)C/C=C\CCCCCCCC(=O)O (tested in a mixture with another compound)
- carcinogen call (Species: MOUSE, Strain/Sex: C57BL/FEMALE, Route: ORAL, Dose: 0, 5% IN DIET FOR 80 WKS (STUDY DURATION: 80 WKS)): inactive; negative
- carcinogen call (Species: MOUSE, Strain/Sex: C57BL/MALE, Route: ORAL, Dose: 0, 5% IN DIET FOR 80 WKS (study duration: 80 WKS)): inactive; negative
- carcinogen call (Species: RAT, Strain/Sex: WISTAR/FEMALE, Route: ORAL, Dose: 0, 5% IN DIET FOR 2 YR (STUDY DURATION: 2 YR)): inactive; negative
- carcinogen call (Species: RAT, Strain/Sex: WISTAR/MALE, Route: ORAL, Dose: 0, 5% IN DIET FOR 2 YR (STUDY DURATION: 2 YEARS)): inactive; negative

Structure (SMILES): O=C(O)CN(CC(=O)O)CC(=O)O
- carcinogen call (Species: MOUSE, Strain/Sex: B6C3F1/FEMALE, Route: ORAL, Dose: 0, 2500, 5000 PPM IN DIET (STUDY DURATION: 18 MO), Dose: 0, 2500, 5000 PPM IN DIET (STUDY DURATION: 18 MO)): inactive; negative
- carcinogen call (Species: MOUSE, Strain/Sex: B6C3F1/FEMALE, Route: ORAL, Dose: 0, 7500, 15000 PPM IN DIET, Dose: 0, 7500, 15000 PPM IN DIET): inactive; negative
- carcinogen call (Species: MOUSE, Strain/Sex: B6C3F1/MALE, Route: ORAL, Dose: 0, 2500, 5000 PPM IN DIET (STUDY DURATION: 18 MO), Dose: 0, 2500, 5000 PPM IN DIET (STUDY DURATION: 18 MO)): inactive; negative
- carcinogen call (Species: MOUSE, Strain/Sex: B6C3F1/MALE, Route: ORAL, Dose: 0, 7500, 15000 PPM IN DIET, Dose: 0, 7500, 15000 PPM IN DIET, Tumor Site: Type of Lesion: KIDNEY: MALIGNANT TUMOR): active; positive
- carcinogen call (Species: RAT, Strain/Sex: F344/FEMALE, Route: ORAL, Dose: 0, 200, 2000, 20000 PPM IN DIET (STUDY DURATION: 24 MO), Dose: 0, 200, 2000, 20000 PPM IN DIET (STUDY DURATION: 24 MO), Tumor Site: Type of Lesion: URINARY BLADDER: TUMOR, URETER: TUMOR, KIDNEY: TUMOR, Tumor Site: Type of Lesion: URINARY BLADDER: TUMOR, URETER: TUMOR, KIDNEY: TUMOR): active; positive
- carcinogen call (Species: RAT, Strain/Sex: F344/FEMALE, Route: ORAL, Dose: 0, 7500, 1500 PPM IN DIET (STUDY DURATION: 18 MO), Dose: 0, 7500, 1500 PPM IN DIET (STUDY DURATION: 18 MO), Tumor Site: Type of Lesion: URINARY BLADDER: PAPILLOMA OR SQUAMOUS CELL CARCINOMA OR TRANSITIONAL CELL CARCINOMA): equivocal
- carcinogen call (Species: RAT, Strain/Sex: F344/FEMALE, Route: ORAL, Dose: 0, 7500, 15000 PPM IN DIET, Dose: 0, 7500, 15000 PPM IN DIET, Tumor Site: Type of Lesion: URINARY BLADDER: MALIGNANT TUMOR): active; positive
- carcinogen call (Species: RAT, Strain/Sex: F344/MALE, Route: ORAL, Dose: 0, 200, 2000, 20000 PPM IN DIET (STUDY DURATION: 24 MO), Dose: 0, 200, 2000, 20000 PPM IN DIET (STUDY DURATION: 24 MO), Tumor Site: Type of Lesion: KIDNEY: TUMOR, URETER: TUMOR): active; positive
- carcinogen call (Species: RAT, Strain/Sex: F344/MALE, Route: ORAL, Dose: 0, 7500, 15000 PPM IN DIET (STUDY DURATION: 18 MO), Dose: 0, 7500, 15000 PPM IN DIET (STUDY DURATION: 18 MO), Tumor Site: Type of Lesion: KIDNEY: TUBULAR CELL ADENOCARCINOMA OR SARCOMA METASTATIC OR HAMARTOMA, RENAL PELVIS: TRANSIT CELL PAPILLOMA): equivocal
- carcinogen call (Species: RAT, Strain/Sex: F344/MALE, Route: ORAL, Dose: 0, 7500, 15000 PPM IN DIET, Dose: 0, 7500, 15000 PPM IN DIET): inactive; negative
- carcinogen call (Species: RAT, Strain/Sex: SPRAGUE-DAWLEY/MALE, Route: ORAL, Dose: 0, 1000 PPM (PURITY NOT REPORTED) IN DRINKING WATER FOR 2 YR, Tumor Site: Type of Lesion: KIDNEY: TUBULAR CELL ADENOMA OR ADENOCARCINOMA): active; positive

Structure (SMILES): COP(=S)(OC)Oc1ccc([N+](=O)[O-])cc1
- carcinogen call (Species: MOUSE, Strain/Sex: B6C3F1/FEMALE, Route: ORAL, Dose: 0, 62.5, 125 PPM IN DIET, Dose: 0, 62.5, 125 PPM IN DIET): inactive; negative
- carcinogen call (Species: MOUSE, Strain/Sex: B6C3F1/MALE, Route: ORAL, Dose: 0, 35, 77 PPM IN DIET, TWA, Dose: 0, 35, 77 PPM IN DIET, TWA): inactive; negative
- carcinogen call (Species: RAT, Strain/Sex: F344/FEMALE, Route: ORAL, Dose: 0, 20, 40 PPM IN DIET, Dose: 0, 20, 40 PPM IN DIET): inactive; negative
- carcinogen call (Species: RAT, Strain/Sex: F344/MALE, Route: ORAL, Dose: 0, 20, 40 PPM IN DIET, Dose: 0, 20, 40 PPM IN DIET): inactive; negative

Structure (SMILES): C=[N+]=[N-]
- carcinogen call (Species: MOUSE, Route: INHALATION, DERMAL, Tumor Site: Type of Lesion: LUNG): active; positive
- carcinogen call (Species: RAT, Route: INHALATION, Tumor Site: Type of Lesion: LUNG): active; positive

Structure (SMILES): C=Cc1ccc(C)cc1
- carcinogen call (Species: MOUSE, Strain/Sex: SWISS/FEMALE, Route: INTRAGASTRIC, Dose: 0, 10, 50, 250 MG/KG IN OLIVE OIL 1/D, 5 D/WK FOR 78 WK (STUDY DURATION: 83 WK), Dose: 0, 10, 50, 250 MG/KG IN OLIVE OIL 1/D, 5 D/WK FOR 78 WK (STUDY DURATION: 83 WK)): inactive; negative
- carcinogen call (Species: MOUSE, Strain/Sex: SWISS/MALE, Route: INTRAGASTRIC, Dose: 0, 10, 50, 250 MG/KG IN OLIVE OIL 1/D, 5 D/WK FOR 78 WK (STUDY DURATION: 83 WK), Dose: 0, 10, 50, 250 MG/KG IN OLIVE OIL 1/D, 5 D/WK FOR 78 WK (STUDY DURATION: 83 WK)): inactive; negative
- carcinogen call (Species: RAT, Strain/Sex: SPRAGUE-DAWLEY/FEMALE, Route: INTRAGASTRIC, Dose: 0, 10, 50, 250, 500 MG/KG IN OLIVE OIL 1/D, 5 D/WK FOR 104 WK (STUDY DURATION: 123 WK), Dose: 0, 10, 50, 250, 500 MG/KG IN OLIVE OIL 1/D, 5 D/WK FOR 104 WK (STUDY DURATION: 123 WK)): inactive; negative
- carcinogen call (Species: RAT, Strain/Sex: SPRAGUE-DAWLEY/MALE, Route: INTRAGASTRIC, Dose: 0, 10, 50, 250, 500 MG/KG IN OLIVE OIL 1/D, 5 D/WK FOR 104 WK (STUDY DURATION: 123 WK), Dose: 0, 10, 50, 250, 500 MG/KG IN OLIVE OIL 1/D, 5 D/WK FOR 104 WK (STUDY DURATION: 123 WK)): inactive; negative

Structure (SMILES): CCOC(=O)c1ccccc1C(=O)OCC
- carcinogen call (Species: MOUSE, Strain/Sex: B6C3F1/FEMALE, Route: DERMAL, Dose: 0, 7.5, 15, 30 µL/100 µL IN ACETONE 5 D/WK FOR 104-105 WK (STUDY DURATION: 104-105 WK), Dose: 0, 7.5, 15, 30 µL/100 µL IN ACETONE 5 D/WK FOR 104-105 WK (STUDY DURATION: 104-105 WK), Tumor Site: Type of Lesion: LIVER: HEPATOCELLULAR ADENOMA, HEPATOCELLULAR ADENOMA OR CARCINOMA): equivocal
- carcinogen call (Species: MOUSE, Strain/Sex: B6C3F1/MALE, Route: DERMAL, Dose: 0, 7.5, 15, 30 µL/100 µL IN ACETONE 5 D/WK FOR 104-105 WK (STUDY DURATION: 104-105 WK), Dose: 0, 7.5, 15, 30 µL/100 µL IN ACETONE 5 D/WK FOR 104-105 WK (STUDY DURATION: 104-105 WK), Tumor Site: Type of Lesion: LIVER: HEPATOCELLULAR ADENOMA, HEPATOCELLULAR ADENOMA OR CARCINOMA): equivocal
- carcinogen call (Species: RAT, Strain/Sex: F344/FEMALE, Route: DERMAL, Dose: 0, 100, 300 µL IN ACETONE 5 D/WK FOR 104 WK (STUDY DURATION: 104 WK), Dose: 0, 100, 300 µL IN ACETONE 5 D/WK FOR 104 WK (STUDY DURATION: 104 WK)): inactive; negative
- carcinogen call (Species: RAT, Strain/Sex: F344/MALE, Route: DERMAL, Dose: 0, 100, 300 µL IN ACETONE 5 D/WK FOR 104 WK (STUDY DURATION: 104 WK), Dose: 0, 100, 300 µL IN ACETONE 5 D/WK FOR 104 WK (STUDY DURATION: 104 WK)): inactive; negative

Structure (SMILES): CC(C)(C)c1cc([N+](=O)[O-])cc([N+](=O)[O-])c1OS(C)(=O)=O
- carcinogen call (Species: RAT, Strain/Sex: SPRAGUE-DAWLEY/FEMALE, Route: ORAL, Dose: 0, 25, 100, 400 PPM IN DIET FOR 1 YR (STUDY DURATION: 1 YR), Dose: 0, 25, 100, 400 PPM IN DIET FOR 1 YR (STUDY DURATION: 1 YR)): inactive; negative
- carcinogen call (Species: RAT, Strain/Sex: SPRAGUE-DAWLEY/MALE, Route: ORAL, Dose: 0, 25, 100, 400 PPM IN DIET FOR 1 YR (STUDY DURATION: 1 YR), Dose: 0, 25, 100, 400 PPM IN DIET FOR 1 YR (STUDY DURATION: 1 YR)): inactive; negative
